{
  "source": "ChEMBL document CHEMBL4507261",
  "about": "“Data for DCP probe A-192621” (2021)",
  "key": {"[1]": {"target": "Endothelin receptor type B (Homo sapiens, UniProt P24530)", "sequence (P24530 whole entry)": "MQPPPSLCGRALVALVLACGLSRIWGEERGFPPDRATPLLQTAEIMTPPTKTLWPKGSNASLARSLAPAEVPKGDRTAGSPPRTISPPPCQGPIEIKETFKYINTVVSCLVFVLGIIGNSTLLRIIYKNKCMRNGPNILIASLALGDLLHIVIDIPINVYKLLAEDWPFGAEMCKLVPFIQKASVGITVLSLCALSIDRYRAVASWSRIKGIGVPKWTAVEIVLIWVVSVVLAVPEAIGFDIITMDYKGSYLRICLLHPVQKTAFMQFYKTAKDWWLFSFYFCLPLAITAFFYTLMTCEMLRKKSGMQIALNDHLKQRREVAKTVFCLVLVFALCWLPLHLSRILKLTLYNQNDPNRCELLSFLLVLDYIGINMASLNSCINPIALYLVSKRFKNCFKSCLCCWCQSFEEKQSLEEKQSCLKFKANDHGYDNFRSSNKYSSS", "test": "Eurofins cellular functional assay - Antagonist (EDNRB)"}, "[2]": {"target": "5-hydroxytryptamine receptor 1D (Homo sapiens) (UniProt P28221)", "sequence (P28221 whole entry)": "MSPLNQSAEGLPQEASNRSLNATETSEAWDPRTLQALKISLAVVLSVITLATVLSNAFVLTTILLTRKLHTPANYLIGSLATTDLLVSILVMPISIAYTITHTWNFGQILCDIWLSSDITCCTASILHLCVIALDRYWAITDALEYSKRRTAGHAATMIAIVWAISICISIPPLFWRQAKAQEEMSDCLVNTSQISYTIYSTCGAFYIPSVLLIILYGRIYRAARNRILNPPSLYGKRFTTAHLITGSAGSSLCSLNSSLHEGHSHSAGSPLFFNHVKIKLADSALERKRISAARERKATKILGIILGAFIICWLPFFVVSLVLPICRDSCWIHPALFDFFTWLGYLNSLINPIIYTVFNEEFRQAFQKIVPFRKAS", "settings": "Compound concentration 10.0 uM"}, "[3]": {"target": "D(1A) dopamine receptor (Homo sapiens) (UniProt P21728)", "sequence (P21728 whole entry)": "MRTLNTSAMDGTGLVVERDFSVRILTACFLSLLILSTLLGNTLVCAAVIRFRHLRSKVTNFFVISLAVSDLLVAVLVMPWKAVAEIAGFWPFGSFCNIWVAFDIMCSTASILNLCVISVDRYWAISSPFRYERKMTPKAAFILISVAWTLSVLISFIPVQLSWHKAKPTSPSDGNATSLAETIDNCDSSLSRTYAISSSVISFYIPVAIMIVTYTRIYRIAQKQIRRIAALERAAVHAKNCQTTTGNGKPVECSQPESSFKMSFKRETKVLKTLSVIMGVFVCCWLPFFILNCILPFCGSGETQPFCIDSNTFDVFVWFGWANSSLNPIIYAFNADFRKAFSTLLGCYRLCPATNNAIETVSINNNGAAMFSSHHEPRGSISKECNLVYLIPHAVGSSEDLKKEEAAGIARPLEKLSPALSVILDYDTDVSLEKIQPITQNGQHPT", "settings": "Compound concentration 10.0 uM"}, "[4]": {"target": "Sodium-dependent serotonin transporter (Homo sapiens) (UniProt P31645)", "sequence (P31645 whole entry, looked up)": "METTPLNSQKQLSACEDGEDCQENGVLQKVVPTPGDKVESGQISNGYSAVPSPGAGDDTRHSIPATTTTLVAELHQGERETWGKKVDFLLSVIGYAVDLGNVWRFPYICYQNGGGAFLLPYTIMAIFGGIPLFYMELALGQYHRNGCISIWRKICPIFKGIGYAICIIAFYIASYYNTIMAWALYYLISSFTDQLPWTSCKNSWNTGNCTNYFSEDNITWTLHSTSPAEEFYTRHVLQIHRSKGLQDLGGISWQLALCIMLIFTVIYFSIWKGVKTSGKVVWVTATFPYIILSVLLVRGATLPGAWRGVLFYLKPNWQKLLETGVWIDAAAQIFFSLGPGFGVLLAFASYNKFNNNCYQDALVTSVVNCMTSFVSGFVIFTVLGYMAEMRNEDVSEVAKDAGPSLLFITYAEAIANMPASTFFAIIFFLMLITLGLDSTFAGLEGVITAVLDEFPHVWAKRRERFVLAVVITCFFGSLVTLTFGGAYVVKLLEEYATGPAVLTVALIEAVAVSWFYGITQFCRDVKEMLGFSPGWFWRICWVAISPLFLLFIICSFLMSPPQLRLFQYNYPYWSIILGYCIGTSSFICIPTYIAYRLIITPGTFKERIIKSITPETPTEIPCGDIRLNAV", "settings": "Compound concentration 10.0 uM"}, "[5]": {"target": "Mu-type opioid receptor (Homo sapiens) (UniProt P35372)", "sequence (P35372 whole entry)": "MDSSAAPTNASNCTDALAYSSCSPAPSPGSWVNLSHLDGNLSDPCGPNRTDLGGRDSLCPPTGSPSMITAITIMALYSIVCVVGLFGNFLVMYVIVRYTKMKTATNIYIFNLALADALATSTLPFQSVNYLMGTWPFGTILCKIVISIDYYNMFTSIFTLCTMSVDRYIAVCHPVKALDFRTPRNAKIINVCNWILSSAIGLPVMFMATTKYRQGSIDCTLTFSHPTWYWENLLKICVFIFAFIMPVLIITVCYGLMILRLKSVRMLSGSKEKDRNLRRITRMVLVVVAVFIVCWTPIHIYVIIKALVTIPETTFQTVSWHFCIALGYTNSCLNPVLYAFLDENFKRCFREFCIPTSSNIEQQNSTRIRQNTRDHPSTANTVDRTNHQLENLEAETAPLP", "settings": "Compound concentration 10.0 uM"}, "[6]": {"target": "Histamine H2 receptor (Homo sapiens) (UniProt P25021)", "sequence (P25021 whole entry)": "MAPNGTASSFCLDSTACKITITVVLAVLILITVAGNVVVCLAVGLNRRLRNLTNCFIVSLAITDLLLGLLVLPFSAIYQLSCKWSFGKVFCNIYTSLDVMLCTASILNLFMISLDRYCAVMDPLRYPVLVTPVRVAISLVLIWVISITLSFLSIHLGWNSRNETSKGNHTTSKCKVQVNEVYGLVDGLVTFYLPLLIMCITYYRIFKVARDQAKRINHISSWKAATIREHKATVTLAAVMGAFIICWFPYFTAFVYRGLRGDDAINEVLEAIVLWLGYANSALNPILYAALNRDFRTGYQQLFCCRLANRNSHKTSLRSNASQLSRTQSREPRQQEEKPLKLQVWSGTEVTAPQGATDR", "settings": "Compound concentration 10.0 uM"}, "[7]": {"target": "T1, Alpha-1A adrenergic receptor (Homo sapiens) (UniProt P35348)", "T1 sequence (whole entry)": "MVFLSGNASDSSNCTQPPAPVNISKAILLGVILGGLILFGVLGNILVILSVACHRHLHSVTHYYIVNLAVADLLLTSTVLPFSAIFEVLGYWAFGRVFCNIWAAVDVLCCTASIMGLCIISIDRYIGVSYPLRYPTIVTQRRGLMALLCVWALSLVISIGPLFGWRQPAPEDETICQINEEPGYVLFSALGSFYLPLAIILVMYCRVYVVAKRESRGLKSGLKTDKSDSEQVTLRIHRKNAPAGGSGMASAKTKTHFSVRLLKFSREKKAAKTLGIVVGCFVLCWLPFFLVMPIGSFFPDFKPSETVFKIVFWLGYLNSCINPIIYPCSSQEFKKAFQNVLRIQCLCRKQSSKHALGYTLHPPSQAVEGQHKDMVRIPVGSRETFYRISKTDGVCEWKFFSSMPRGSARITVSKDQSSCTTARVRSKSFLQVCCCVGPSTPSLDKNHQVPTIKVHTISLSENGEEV", "settings": "Compound concentration 10.0 uM"}, "[8]": {"target": "T2, Alpha-1B adrenergic receptor (Homo sapiens) (UniProt P35368)", "T2 sequence (whole entry)": "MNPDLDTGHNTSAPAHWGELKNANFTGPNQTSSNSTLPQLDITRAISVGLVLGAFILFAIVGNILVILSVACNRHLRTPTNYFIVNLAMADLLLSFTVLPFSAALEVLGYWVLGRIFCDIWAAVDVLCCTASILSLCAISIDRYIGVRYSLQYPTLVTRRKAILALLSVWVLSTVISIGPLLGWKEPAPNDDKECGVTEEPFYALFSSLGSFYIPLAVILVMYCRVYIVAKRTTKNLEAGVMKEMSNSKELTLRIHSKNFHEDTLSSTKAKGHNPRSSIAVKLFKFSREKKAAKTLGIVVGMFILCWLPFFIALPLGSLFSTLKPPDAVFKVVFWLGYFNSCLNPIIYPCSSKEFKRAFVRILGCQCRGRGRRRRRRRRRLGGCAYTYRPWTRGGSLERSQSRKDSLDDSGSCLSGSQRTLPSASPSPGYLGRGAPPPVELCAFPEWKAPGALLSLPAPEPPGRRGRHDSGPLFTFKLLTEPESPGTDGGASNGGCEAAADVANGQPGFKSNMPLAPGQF", "settings": "Compound concentration 10.0 uM"}, "[9]": {"target": "T3, Alpha-2A adrenergic receptor (Homo sapiens) (UniProt P08913)", "T3 sequence (whole entry)": "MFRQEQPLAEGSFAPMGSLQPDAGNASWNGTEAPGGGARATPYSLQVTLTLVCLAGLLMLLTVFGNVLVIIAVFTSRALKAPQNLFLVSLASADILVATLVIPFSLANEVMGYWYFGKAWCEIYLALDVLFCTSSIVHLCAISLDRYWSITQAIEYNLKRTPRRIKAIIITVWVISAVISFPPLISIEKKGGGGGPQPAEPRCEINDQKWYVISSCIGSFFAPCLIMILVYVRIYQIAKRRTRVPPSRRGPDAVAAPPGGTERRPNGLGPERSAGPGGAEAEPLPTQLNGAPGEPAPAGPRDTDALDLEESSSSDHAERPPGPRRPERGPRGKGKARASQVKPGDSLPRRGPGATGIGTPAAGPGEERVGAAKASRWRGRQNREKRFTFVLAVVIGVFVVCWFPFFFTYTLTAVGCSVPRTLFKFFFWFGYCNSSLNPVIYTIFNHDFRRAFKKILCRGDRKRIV", "settings": "Compound concentration 10.0 uM"}, "[10]": {"target": "T4, Alpha-2B adrenergic receptor (Homo sapiens) (UniProt P18089)", "T4 sequence (whole entry)": "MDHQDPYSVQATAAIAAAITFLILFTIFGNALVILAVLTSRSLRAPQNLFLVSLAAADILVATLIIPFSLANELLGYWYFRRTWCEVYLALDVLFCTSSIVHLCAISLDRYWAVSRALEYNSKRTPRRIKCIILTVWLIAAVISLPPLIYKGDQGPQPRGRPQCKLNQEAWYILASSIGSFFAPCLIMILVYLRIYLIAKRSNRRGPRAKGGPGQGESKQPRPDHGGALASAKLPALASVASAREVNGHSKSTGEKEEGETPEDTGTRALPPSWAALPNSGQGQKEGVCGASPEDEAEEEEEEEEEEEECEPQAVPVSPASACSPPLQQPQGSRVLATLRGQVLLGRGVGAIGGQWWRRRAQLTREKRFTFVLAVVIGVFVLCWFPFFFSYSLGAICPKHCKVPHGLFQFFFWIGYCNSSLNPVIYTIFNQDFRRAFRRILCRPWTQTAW", "settings": "Compound concentration 10.0 uM"}, "[11]": {"target": "T5, Muscarinic acetylcholine receptor M5 (Homo sapiens) (UniProt P08912)", "T5 sequence (whole entry)": "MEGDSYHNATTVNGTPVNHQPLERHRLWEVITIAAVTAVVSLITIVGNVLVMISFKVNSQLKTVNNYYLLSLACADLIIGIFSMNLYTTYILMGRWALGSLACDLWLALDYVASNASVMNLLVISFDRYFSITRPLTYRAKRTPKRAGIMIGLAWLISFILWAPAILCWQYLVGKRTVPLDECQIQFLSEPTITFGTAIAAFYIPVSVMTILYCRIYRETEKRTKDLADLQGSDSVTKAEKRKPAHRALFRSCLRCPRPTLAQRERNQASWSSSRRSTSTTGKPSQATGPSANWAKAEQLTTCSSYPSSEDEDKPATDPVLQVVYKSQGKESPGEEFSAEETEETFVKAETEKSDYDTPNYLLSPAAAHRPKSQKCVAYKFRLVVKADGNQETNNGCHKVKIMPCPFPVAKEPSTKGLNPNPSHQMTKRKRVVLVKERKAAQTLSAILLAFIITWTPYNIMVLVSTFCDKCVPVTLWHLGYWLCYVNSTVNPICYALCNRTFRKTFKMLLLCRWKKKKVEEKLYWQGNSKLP", "settings": "Compound concentration 10.0 uM"}, "[12]": {"target": "Beta-3 adrenergic receptor (Homo sapiens) (UniProt P13945)", "sequence (P13945 whole entry, looked up)": "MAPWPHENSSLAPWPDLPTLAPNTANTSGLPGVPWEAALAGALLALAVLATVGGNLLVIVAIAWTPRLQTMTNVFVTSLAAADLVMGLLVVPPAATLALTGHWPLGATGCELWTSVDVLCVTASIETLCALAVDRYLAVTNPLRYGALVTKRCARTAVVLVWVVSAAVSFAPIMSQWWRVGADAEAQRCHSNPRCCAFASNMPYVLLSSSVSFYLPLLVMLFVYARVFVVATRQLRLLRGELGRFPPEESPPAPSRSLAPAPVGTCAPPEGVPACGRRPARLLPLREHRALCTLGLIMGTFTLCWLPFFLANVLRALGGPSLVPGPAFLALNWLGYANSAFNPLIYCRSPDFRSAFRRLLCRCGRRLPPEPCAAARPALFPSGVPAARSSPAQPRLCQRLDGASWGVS", "settings": "Compound concentration 10.0 uM"}, "[13]": {"target": "Sigma non-opioid intracellular receptor 1 (Homo sapiens) (UniProt Q99720)", "sequence (Q99720 whole entry)": "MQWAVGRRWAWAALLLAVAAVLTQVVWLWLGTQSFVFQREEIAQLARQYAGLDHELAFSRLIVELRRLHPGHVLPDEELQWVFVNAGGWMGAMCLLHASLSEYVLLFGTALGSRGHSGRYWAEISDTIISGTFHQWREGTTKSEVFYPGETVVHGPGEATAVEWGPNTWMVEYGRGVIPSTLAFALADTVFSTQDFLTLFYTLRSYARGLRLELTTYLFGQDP", "settings": "Compound concentration 10.0 uM"}},
  "note": "Calls of active or inactive are those of the source. The calls are words filed in the database; no cut-off is given here.",
  "data": [
    {"smiles": "CCCOc1ccc([C@H]2[C@H](C(=O)O)[C@@H](c3ccc4c(c3)OCO4)CN2CC(=O)Nc2c(CC)cccc2CC)cc1", "note": "[A-192621]", "values": [
      {"measurement": "IC50", "setting": "[1]", "result": "6.5 nM (active)"},
      {"measurement": "inhibition", "setting": "[2]", "result": -3.09, "unit": "%"},
      {"measurement": "inhibition", "setting": "[3]", "result": 17.3, "unit": "%"},
      {"measurement": "inhibition", "setting": "[4]", "result": 10.6, "unit": "%"},
      {"measurement": "inhibition", "setting": "[5]", "result": 6.79, "unit": "%"},
      {"measurement": "inhibition", "setting": "[6]", "result": 5.77, "unit": "%"},
      {"measurement": "inhibition", "setting": "[7]", "result": -9.09, "unit": "%"},
      {"measurement": "inhibition", "setting": "[8]", "result": -2.22, "unit": "%"},
      {"measurement": "inhibition", "setting": "[9]", "result": 9.55, "unit": "%"},
      {"measurement": "inhibition", "setting": "[10]", "result": 10.4, "unit": "%"},
      {"measurement": "inhibition", "setting": "[11]", "result": 27.3, "unit": "%"},
      {"measurement": "inhibition", "setting": "[12]", "result": 13.3, "unit": "%"},
      {"measurement": "inhibition", "setting": "[13]", "result": 4.29, "unit": "%"}
    ]}
  ]
}
